Experiments:
MAP2+ neurons = assay: Count of MAP2+ neurons in primary mesencephalic cultures (phenotypic specificity); type: cell-based, rat; settings: DIV12; 10 nM and 100 nM; FIG. 5
From the text: At 8 days of culture, the cells are fixed by a 4% formaldehyde solution and then washed three times with PBS. The cells then undergo several immunohistochemistry procedures: • anti-tyrosine hydroxylase (TH) visualized by a secondary antibody coupled to a fluorochrome that emits in the red spectrum (Cy3). • anti-MAP2 (MAP=microtubule-associated protein) (neuron marker) visualized by a secondary antibody coupled to a fluorochrome that emits in the green spectrum (alexa488). • DAPI (4′,6-diamidino-2-phenylindole), a nuclear marker that emits in the blue spectrum.
Neuroprotection is evaluated by counting TH positive neurons directly under the microscope or MAP2 positive on images, at 15 images per well, expressed as a percentage of the untreated control. The experiments include three wells per condition. Three independent experiments are carried out under these conditions. Total neurite length per cell calculated by the Neurite Outgrowth software by Explora Nova on 20 neurons photographed independently per well gives an indication of the state of maturation of the dopaminergic neurons. […]
First, the neurons are cultured and maintained at DIV12. […] The neurons are then counted via image with X20 enlargement at 15 images per well.

[1] = tested on: PC12 pheochromocytoma cells; assay: Differentiating activity on PC12 pheochromocytoma cells; type: cell-based; settings: 100 nM and 1 μM
Description: The cells are maintained in […] flasks at 37° C. in a humid atmosphere enriched by 5% CO2 in RPMI medium supplemented with 10% horse serum, 5% fetal calf serum, 1% glutamine and 1% penicillin/streptomycin mixture. The horse and fetal calf serums are decomplemented for 40 minutes at 56° C. before use. The cultures are divided when they reach 80% confluence, approximately every 3 days. Each operation is performed by scraping the cells and then centrifugation at 1,000 rpm for 5 minutes, mechanical dissociation of the cell aggregates and inoculation at the dilution desired. Before treatment, the cells are cultivated 5 days in a deprivation medium composed of RPMI supplemented with 1% horse serum, 0.5% fetal calf serum, 1% glutamine, 1% penicillin/streptomycin and 50 ng/ml NGF (nerve growth factor). After 5 days of pretreatment with NGF, the cells are washed twice with PBS (phosphate buffered saline), taken up in deprivation medium, scraped and pelleted at 1,000 rpm for 5 minutes. The cells are then dissociated, counted on a hemocytometer and inoculated at a concentration of 15.6×10^3 cells/cm^2. After 4 hours, the cells are treated by various compounds of the invention at the concentrations desired (stock solutions in absolute ethanol and then a series of dilutions in water). […] At least 20 differentiated cells per well are photographed at random and the length of their neurites are measured using the NeuronJ macro of the ImageJ software. The number of neurites is also counted. Mean total neurite length and number of neurites are then calculated per cell. […] In order to quantify the differentiation of PC12 cells we calculated the ratio between the number of cells emitting dendritic extensions and the total number of cells 48 hours after treatment with our substances at 100 nM and at 1 μM. Morphological changes at the microscopic level were quantified for the cells emitting extensions at approximately 100 cells per condition. Thus number of neurites and mean neurite length per cell were measured using the NeuronJ measurement software by ImageJ.

dopaminergic neurons = assay: Measurement of tritiated dopamine reuptake in primary mesencephalic cultures; type: cell-based, rat; settings: 12 days of culture; 1 nM, 10 nM, 100 nM and 1 μM; FIG. 4
Description: The primary cultures are treated and cultivated as previously indicated for 12 days in a 24-well plate. The medium is then replaced by a medium lacking serum and enriched with glucose (PBS+5 mM glucose). One well is treated with GBR (5 μM) and will be used to determine nonspecific reuptake. The cells are incubated in this medium for 10 minutes. 50 μl of tritiated dopamine in solution (20 μl of 1 mCi/ml ^3H-dopamine in 1 ml PBS) is added in each well and the cells are incubated for 20 minutes at 37° C.
The wells are then washed twice with PBS, and then 500 μl distilled water is added. The cells are scraped and the liquid transferred to scintillation vials containing 7 ml scintillation liquid (Biodegradable Counting Scintillant-liquid scintillation spectroscopy, BCS), well by well. The samples are run through the scintillation counter.
Neurons at 12 days of culture are then cultivated for a short time in the presence of tritiated dopamine (H^3-DA). After washing, the cells are lysed and intraneuronal H^3-DA is recovered and assayed by scintillation counter.

SMILES: C#CC(O)CCCCCCCCCCCCC#Cc1ccc2ccccc2n1 (centres unmarked) [Compound N3, 17-(quinolin-2-yl)heptadec-1,16-diyn-3-ol]
- survival of total neurons of the culture (MAP2+ neurons) versus untreated control (MAP2+ neurons): increased
- cells producing extensions (percentage of PC12 cells differentiated) by comparison with untreated cells ([1]; 48 hours after treatment, FIG. 1A): two to three times as many cells produce extensions
- mean neurite length per cell compared to the control ([1]; PC12 cells, FIG. 1B): longer
- number of neurites per cell compared to the control ([1]; PC12 cells, FIG. 1B): more
- reuptake of tritiated dopamine by dopaminergic neurons versus untreated control (dopaminergic neurons): increased
